Assay results as given in patent US20230382926A1, “COMPOUNDS AND USES THEREOF” (The University of The West Indies, priority 2022, published 2023).

Experiments:
Assay in all cases: Rescue concentration, modified checkerboard MIC adjuvant assay
Format in all cases: cell-based
[1] = test system: Acinetobacter baumannii clinical isolate 9978; conditions: A. baumannii clinical isolate 9978
Outline: (§1)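 Each well receives bacteria at 10^6 CFU/ml in cation-adjusted Mueller Hinton Broth, a breakpoint concentration of antibiotic, and one step of a twofold compound series. After aerobic incubation at 35° C. for 24 h, growth is scored by eye; rescue concentration reduces MIC to breakpoint.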

[2] = test system: Enterobacter cloacae ATCC BAA-1143; conditions: E. cloacae ATCC BAA-1143
Outline: as §1

[3] = test system: Enterococcus faecalis ATCC 51299; conditions: E. faecalis ATCC 51299
Outline: as §1

[4] = test system: Klebsiella pneumoniae ATCC 49472; conditions: K. pneumoniae ATCC 49472
Outline: as §1

[5] = test system: Klebsiella pneumoniae ATCC BAA-2814; conditions: K. pneumoniae ATCC BAA-2814
Outline: as §1

[6] = test system: Pseudomonas aeruginosa MDR 5805; conditions: P. aeruginosa MDR 5805
Outline: as §1

[7] = test system: Staphylococcus aureus ATCC BAA-2312; conditions: S. aureus ATCC BAA-2312
Outline: as §1

[8] = test system: Stenotrophomonas maltophilia MDR 7785; conditions: S. maltophilia MDR 7785
Outline: as §1

[9] = Amox at susceptible breakpoint 8 μg mL^−1
[10] = Cef at susceptible breakpoint 8 μg mL^−1
[11] = Col at susceptible breakpoint 2 μg mL^−1
[12] = Gen at susceptible breakpoint 4 μg mL^−1
[13] = Imi at susceptible breakpoint 2 μg mL^−1
[14] = Mero at susceptible breakpoint 2 μg mL^−1
[15] = Pol B at susceptible breakpoint 2 μg mL^−1
[16] = Amp at susceptible breakpoint 8 μg mL^−1
[17] = Azi at susceptible breakpoint 16 μg mL^−1
[18] = Ceph at susceptible breakpoint 8 μg mL^−1
[19] = Chl at susceptible breakpoint 8 μg mL^−1
[20] = Col at susceptible breakpoint 8 μg mL^−1
[21] = Dox at susceptible breakpoint 4 μg mL^−1
[22] = Imi at susceptible breakpoint 1 μg mL^−1
[23] = Tet at susceptible breakpoint 4 μg mL^−1
[24] = Tri at susceptible breakpoint 8 μg mL^−1

SMILES: Oc1ccc(C(c2c[nH]c3ncccc23)c2c[nH]c3ncccc23)cc1 [SP-7azaBIM 135, 4-(bis(1H-pyrrolo[2,3-b]pyridin-3-yl)methyl)phenol]
- Rescue concentration, Amox (8) [1, 9]: >127 µg/mL
- Rescue concentration, Cef (8) [1, 10]: >128 µg/mL
- Rescue concentration, Col (2) [1, 11]: >128 µg/mL
- Rescue concentration, Gen (4) [1, 12]: >128 µg/mL
- Rescue concentration, Imi (2) [1, 13]: >128 µg/mL
- Rescue concentration, Mero (2) [1, 14]: >128 µg/mL
- Rescue concentration, Pol B (2) [1, 15]: >128 µg/mL
- Rescue concentration, Amp (8) [2, 16]: 64 µg/mL
- Rescue concentration, Azi (16) [2, 17]: >128 µg/mL
- Rescue concentration, Ceph (8) [2, 18]: >128 µg/mL
- Rescue concentration, Chl (8) [2, 19]: >128 µg/mL
- Rescue concentration, Col (8) [2, 20]: 64 µg/mL
- Rescue concentration, Dox (4) [2, 21]: >128 µg/mL
- Rescue concentration, Gen (4) [2, 12]: >128 µg/mL
- Rescue concentration, Imi (1) [2, 22]: 32 µg/mL
- Rescue concentration, Tet (4) [2, 23]: >128 µg/mL
- Rescue concentration, Amp (8) [3, 16]: >128 µg/mL
- Rescue concentration, Chl (8) [3, 19]: >128 µg/mL
- Rescue concentration, Dox (4) [3, 21]: >128 µg/mL
- Rescue concentration, Ery (0.5) ([3]; Ery at susceptible breakpoint 0.5 μg mL^−1): >128 µg/mL
- Rescue concentration, Tri (8) [3, 24]: >128 µg/mL
- Rescue concentration, Van (4) ([3]; Van at susceptible breakpoint 4 μg mL^−1): >128 µg/mL
- Rescue concentration, Amox (8) [4, 9]: >128 µg/mL
- Rescue concentration, Amp (8) [4, 16]: >128 µg/mL
- Rescue concentration, Col (8) [4, 20]: >128 µg/mL
- Rescue concentration, Imi (1) [4, 22]: >128 µg/mL
- Rescue concentration, Mero (1) ([4]; Mero at susceptible breakpoint 1 μg mL^−1): >128 µg/mL
- Rescue concentration, Pol B (8) ([4]; Pol B at susceptible breakpoint 8 μg mL^−1): >128 µg/mL
- Rescue concentration, Amox (8) [5, 9]: >128 µg/mL
- Rescue concentration, Amp (8) [5, 16]: >128 µg/mL
- Rescue concentration, Aze (4) ([5]; Aze at susceptible breakpoint 4 μg mL^−1): >128 µg/mL
- Rescue concentration, Azi (16) [5, 17]: >128 µg/mL
- Rescue concentration, Cef (16) ([5]; Cef at susceptible breakpoint 16 μg mL^−1): >128 µg/mL
- Rescue concentration, Ceph (8) [5, 18]: >128 µg/mL
- Rescue concentration, Chl (8) [5, 19]: >128 µg/mL
- Rescue concentration, Col (8) [5, 20]: >128 µg/mL
- Rescue concentration, Dox (4) [5, 21]: >128 µg/mL
- Rescue concentration, Gen (4) [5, 12]: >128 µg/mL
- Rescue concentration, Imi (1) [5, 22]: >128 µg/mL
- Rescue concentration, Tet (4) [5, 23]: >128 µg/mL
- Rescue concentration, Amox (8) [6, 9]: 64 µg/mL
- Rescue concentration, Col (2) [6, 11]: >128 µg/mL
- Rescue concentration, Gen (4) [6, 12]: >128 µg/mL
- Rescue concentration, Imi (2) [6, 13]: >128 µg/mL
- Rescue concentration, Mero (2) [6, 14]: >128 µg/mL
- Rescue concentration, Pol B (2) [6, 15]: >128 µg/mL
- Rescue concentration, Azi (2) ([7]; Azi at susceptible breakpoint 2 μg mL^−1): >128 µg/mL
- Rescue concentration, Gen (4) [7, 12]: >128 µg/mL
- Rescue concentration, Pen (0.12) ([7]; Pen at susceptible breakpoint 0.12 μg mL^−1): >128 µg/mL
- Rescue concentration, Tri (8) [7, 24]: >128 µg/mL
- Rescue concentration, Van (2) ([7]; Van at susceptible breakpoint 2 μg mL^−1): >128 µg/mL
- Rescue concentration, Cef (8) [8, 10]: >128 µg/mL
- Rescue concentration, Ceph (8) [8, 18]: >128 µg/mL
- Rescue concentration, Chl (8) [8, 19]: >128 µg/mL
- Rescue concentration, Cip (2) ([8]; Cip at susceptible breakpoint 2 μg mL^−1): >128 µg/mL
- Rescue concentration, Gen (4) [8, 12]: >128 µg/mL
- Rescue concentration, Imi (2) [8, 13]: >128 µg/mL
- Rescue concentration, Mero (2) [8, 14]: >128 µg/mL
- Rescue concentration, Tri (2) ([8]; Tri at susceptible breakpoint 2 μg mL^−1): >128 µg/mL
